Measurements as given in US6685617B1, “Inhibitors of α4β1 mediated cell adhesion” (Pharmacia & Upjohn Company, priority 1998, dated 2004).
Counter-ions that a name gives are not always drawn.

What was measured:
[1] = biological target: T1, α4β1 integrin (Jurkat T-cell adhesion to IL-1 stimulated endothelial cell monolayers) (Homo sapiens, UniProt P05556+P13612); experiment: Jurkat-endothelial cell adhesion assay (Jurkat EC); type: cell-based; settings: Jurkat cells on IL-1 stimulated human umbilical vein endothelial cells; read-out: JK/EC (Jurkat EC Assay IC50 value range)
T1 construct: a T-cell line, Jurkat, known to express the α4β1 integrin; host or cells: Jurkat T-cell line
Procedure, shortened: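 Adhesion was expressed as percent of compound-free fluorescence after 20 min at 37° C (following 5 min settling on ice) of BCECF-loaded Jurkat T cells on washed HUVEC monolayers. The endothelium, passage 6 or lower, had received 0.1 ng/ml recombinant IL-1 for 4 hr at 37° C; compound was premixed with the T cells, typically at 100, 20, 5 and 1.25 μM.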

[2] = biological target: T2, α4β1 integrin (Jurkat cell adhesion to immobilized CS-1 derived peptide CLHPGEILDVPST) (Homo sapiens, UniProt P05556+P13612); experiment: Jurkat-CS-1 assay; type: cell-based; settings: Jurkat cells on CS-1 peptide coated plates; read-out: JK/CS-1 (Jurkat CS-1 Assay IC50 value range)
T2 construct: 100 μl of Jurkat cells (2.5×10^6 cells/ml) in DMEM plus BSA; host or cells: Jurkat T-cell line
Procedure, shortened: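 CS-1 peptide was SPDP-crosslinked onto HSA-coated plates and blocked with BSA. Jurkat cells (2.5×10^6 cells/ml) in DMEM/BSA were mixed with compound, generally at 100, 20, 5 and 1.25 μM, and allowed to adhere for 1 hr at 37° C. Bound cells were fixed, stained with toluidine blue and quantified by OD590.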

T1 sequence (P13612 34-1032): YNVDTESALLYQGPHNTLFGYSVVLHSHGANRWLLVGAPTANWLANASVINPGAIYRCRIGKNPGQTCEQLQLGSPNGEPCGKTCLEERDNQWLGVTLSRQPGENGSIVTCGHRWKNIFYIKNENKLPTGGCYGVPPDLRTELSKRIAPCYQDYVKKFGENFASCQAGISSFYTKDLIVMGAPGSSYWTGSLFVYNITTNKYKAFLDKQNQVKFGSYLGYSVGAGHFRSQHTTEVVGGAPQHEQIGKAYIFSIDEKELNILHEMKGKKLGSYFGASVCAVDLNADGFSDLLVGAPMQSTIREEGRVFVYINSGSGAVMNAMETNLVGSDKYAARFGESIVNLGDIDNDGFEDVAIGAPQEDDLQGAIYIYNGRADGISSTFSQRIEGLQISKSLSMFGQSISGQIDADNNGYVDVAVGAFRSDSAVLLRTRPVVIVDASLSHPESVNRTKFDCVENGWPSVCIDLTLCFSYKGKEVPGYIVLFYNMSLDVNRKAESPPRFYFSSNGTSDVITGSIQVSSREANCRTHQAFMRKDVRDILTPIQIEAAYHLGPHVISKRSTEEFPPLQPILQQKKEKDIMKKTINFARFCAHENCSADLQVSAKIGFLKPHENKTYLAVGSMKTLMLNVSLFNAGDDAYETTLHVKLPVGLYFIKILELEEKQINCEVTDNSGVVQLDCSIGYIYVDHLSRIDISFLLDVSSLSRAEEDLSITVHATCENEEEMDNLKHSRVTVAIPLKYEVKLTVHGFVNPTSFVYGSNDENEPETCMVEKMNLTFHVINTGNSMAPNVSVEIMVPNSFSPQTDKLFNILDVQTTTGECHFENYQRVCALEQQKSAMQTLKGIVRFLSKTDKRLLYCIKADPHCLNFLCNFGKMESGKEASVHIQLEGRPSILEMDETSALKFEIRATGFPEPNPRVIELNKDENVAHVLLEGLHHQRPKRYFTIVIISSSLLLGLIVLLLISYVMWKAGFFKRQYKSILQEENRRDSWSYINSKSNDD
T1 sequence (P05556 21-798): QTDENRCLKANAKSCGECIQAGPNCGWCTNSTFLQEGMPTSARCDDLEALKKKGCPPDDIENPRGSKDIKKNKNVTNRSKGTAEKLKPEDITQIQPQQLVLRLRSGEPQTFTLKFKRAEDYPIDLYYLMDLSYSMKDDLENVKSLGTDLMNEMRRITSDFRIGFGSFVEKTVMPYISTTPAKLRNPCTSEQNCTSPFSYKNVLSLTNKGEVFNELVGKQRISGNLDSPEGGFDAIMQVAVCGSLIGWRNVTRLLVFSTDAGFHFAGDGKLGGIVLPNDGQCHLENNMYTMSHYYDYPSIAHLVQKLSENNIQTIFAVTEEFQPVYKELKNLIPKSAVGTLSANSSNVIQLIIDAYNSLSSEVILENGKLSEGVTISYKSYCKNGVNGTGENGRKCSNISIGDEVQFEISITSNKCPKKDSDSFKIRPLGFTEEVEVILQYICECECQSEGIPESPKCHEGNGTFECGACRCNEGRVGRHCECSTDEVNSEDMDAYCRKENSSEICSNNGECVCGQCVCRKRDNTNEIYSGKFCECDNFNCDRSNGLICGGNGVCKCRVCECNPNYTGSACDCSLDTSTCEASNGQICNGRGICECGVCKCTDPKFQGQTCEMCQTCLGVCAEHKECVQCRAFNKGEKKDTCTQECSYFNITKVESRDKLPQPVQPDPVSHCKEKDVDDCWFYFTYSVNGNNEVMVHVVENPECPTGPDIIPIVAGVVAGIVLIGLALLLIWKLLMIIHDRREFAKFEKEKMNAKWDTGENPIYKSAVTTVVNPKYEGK
T2 sequence (P13612 34-1032): as the sequence (P13612 34-1032) above
T2 sequence (P05556 21-798): as the sequence (P05556 21-798) above

In the case of C[C@@H](c1ccccc1)N1[C@H](C(=O)O)C[C@H]1C(=O)N[C@@H](Cc1ccc(NC(=O)c2c(Cl)cccc2Cl)cc1)C(=O)O (as salt: salt) [Example 129, [2S-[1(R*),2α,4β(R*)]]-4-[[[1-Carboxy-2-[4-[(2,6-dichlorobenzoyl)amino]phenyl]ethyl]-amino]carbonyl]-1-(1-phenylethyl)-2-azetidinecarboxylic Acid Dilithium Salt], the melting point is reported as 270 °C.

With COC(=O)[C@H](Cc1ccc(NC(=O)c2c(Cl)cccc2Cl)cc1)NC(=O)[C@H]1CSCN1C(=O)N(CCO)CCO [Example 57, N-[[(4S)-3-[[bis(2-Hydroxyethyl)amino]carbonyl]-4-thiazolidinyl]carbonyl]-4-[(2,6-dichlorobenzoyl)amino]-L-phenylalanine Methyl Ester] the IC50 [1] was at least 1000 nM, the IC50 [2] was at least 750 nM and the melting point was 105 to 107 °C.

Molecule CCOC(=O)N1[C@@H](C(=O)N[C@@H](Cc2ccc(NC(=O)c3c(Cl)cccc3Cl)cc2)C(=O)OC)C[C@@H]1C(=O)OC [Example 140, [2R-(2α,4β(S*)]-4-[[[1-[[4-[(2,6-Dichlorobenzoyl)amino]phenyl]methyl]-2-methoxy-2-oxoethyl]amino]carbonyl]-1,2-azetidinedicarboxylic Acid 1-Ethyl-2-methyl Diester] has an IC50 [1] of at least 1000 nM, an IC50 [2] of at least 750 nM and a melting point of 97 to 99 °C.

COC(=O)[C@H](Cc1ccc(OCc2c(Cl)cccc2Cl)cc1)NC(=O)[C@H]1CSCN1C(=O)OCc1ccccn1 (relative stereo) [Example 38, [S-(R*,R*)]-4-[[[1-[4-[(2,6-Dichlorophenyl)methoxy]phenyl]methyl]-2-methoxy-2-oxoethyl]amino]carbonyl]-3-thiazolidinecarboxylic Acid 3-[(2-Pyridinyl)methyl]ester] showed an IC50 [1] of at least 1000 nM, an IC50 [2] of at least 750 nM and a melting point of 123 to 125 °C.

With COC(=O)[C@H](Cc1ccc(OCc2c(Cl)cccc2Cl)cc1)NC(=O)[C@H]1CSCN1C(=O)OC1CCOC1 (relative stereo) [Example 156, [S-(R*,R*)]-4-[[[1-[[4-[(2,6-Dichlorophenyl)methoxy]phenyl]methyl]-2-methoxy-2-oxoethyl]amino]carbonyl]-3-thiazolidinecarboxylic Acid 3-(3-Tetrahydrofuranyl)ester] the IC50 [1] was at least 1000 nM, the IC50 [2] was 50 to 750 nM and the melting point was 125 to 126.5 °C.

Molecule COC(=O)[C@H](Cc1ccc(NC(=O)c2c(Cl)cccc2Cl)cc1)NC(=O)[C@@H]1CCN1 [Example 158, [2S-(R*,R*)]-2-[[[1-[[4-[(2,6-Dichlorobenzoyl)amino]phenyl]methyl]-2-methoxy-2-oxoethyl]amino]carbonyl]azetidine] has an IC50 [1] of at least 1000 nM, an IC50 [2] of at least 750 nM and a melting point of 113 to 115 °C.

In the case of COC(=O)[C@H](Cc1ccc(NC(=O)c2c(Cl)cccc2Cl)cc1)NC(=O)[C@H]1CSCN1C(=O)N(C)CCc1ccccn1 [Example 54, 4-[(2,6-Dichlorobenzoyl)amino]-N-[[(4S)-3-[[methyl[2-(2-pyridinyl)ethyl]amino]carbonyl]-4-thiazoidinyl]carbonyl]-L-phenylalanine Methyl Ester], the IC50 [1] is reported as at least 1000 nM, the IC50 [2] is reported as 50 to 750 nM and the melting point is reported as 80 to 90 °C (dec.).

With COC(=O)[C@H](Cc1ccc(OCc2c(Cl)cccc2Cl)cc1)NC(=O)[C@H]1CSCN1C(=O)OCCN1CCCC1 (relative stereo) [Example 39, [S-(R*,R*)]-4-[[[1-[4-[(2,6-Dichlorophenyl)methoxy]phenyl]methyl]-2-methoxy-2-oxoethyl]amino]carbonyl]-3-thiazolidinecarboxylic Acid 3-[2-(1-Pyrrolidinyl)ethyl]ester] the IC50 [1] was at most 250 nM, the IC50 [2] was 50 to 750 nM and the melting point was 130 to 132 °C.

For CCOC(=O)N1CSC[C@@H]1C(=O)N[C@@H](Cc1ccc(NC(=O)c2c(Cl)cccc2Cl)cc1)C(=O)O (relative stereo) [Example 12, [S-(R*,R*)]-4-[[[1-Carboxy-2-[4-[(2,6-dichlorobenzoyl)amino]phenyl]ethyl]amino]carbonyl]-3-thiazolidinecarboxylic Acid 3-Ethyl Ester], the IC50 [1] was at most 250 nM, the IC50 [2] was at most 50 nM and the melting point was 118 to 121 °C.

For COC(=O)[C@H](Cc1ccc(NC(=O)c2c(Cl)cccc2Cl)cc1)NC(=O)[C@@H]1CCN1C(=O)OC(C)(C)C [Example 142, [2S-(R*,R*)]-2-[[[1-[4-[(2,6-Dichlorobenzoyl)amino]phenylmethyl]-2-methoxy-2-oxoethyl]amino]carbonyl]-1-azetidinecarboxylic Acid 1-(1,1-Dimethyl)ethyl Ester], the IC50 [1] was at least 1000 nM, the IC50 [2] was at least 750 nM and the melting point was 106 to 108 °C.

For COC(=O)[C@H](Cc1ccc(OCc2c(Cl)cccc2Cl)cc1)NC(=O)[C@H]1CSCN1C(=O)OCCN1CCOCC1 (relative stereo) [Example 36, [S-(R*,R*)]-4-[[[1-[4-[(2,6-Dichlorophenyl)methoxy]phenyl]methyl]-2-methoxy-2-oxoethyl]amino]carbonyl]-3-thiazolidinecarboxylic Acid 3-[2-(4-Morpholinyl)ethyl]ester], the IC50 [1] was at most 250 nM, the IC50 [2] was at most 50 nM and the melting point was 138 to 140 °C.

CN(CCc1ccccn1)C(=O)N1CSC[C@@H]1C(=O)N[C@@H](Cc1ccc(OCc2c(Cl)cccc2Cl)cc1)C(=O)O (relative stereo) [Example 153, [S-(R*,R*)]-4-[[[1-Carboxy-2-[4-[(2,6-dichlorophenyl)methoxy]phenyl]ethyl]amino]-carbonyl]-N-methyl-N-[2-(2-pyridinyl)ethyl]-3-thiazolidinecarboxamide] showed an IC50 [1] of at least 1000 nM, an IC50 [2] of at least 750 nM and a melting point of 80 °C.

With COC(=O)[C@H](Cc1ccc(NC(=O)c2c(Cl)cccc2Cl)cc1)NC(=O)[C@H]1CSCN1C(=O)N1CCOCC1 [Example 56, 4-[(2,6-Dichlorobenzoyl)amino]-N-[[(4S)-3-(4-morpholinylcarbonyl)-4-thiazolidinyl]carbonyl]-L-phenylalanine Methyl Ester] the IC50 [1] was at least 1000 nM, the IC50 [2] was 50 to 750 nM and the melting point was 223 to 225 °C.

In the case of CS(=O)(=O)N1CSC[C@@H]1C(=O)N[C@@H](Cc1ccc(OCc2c(Cl)cccc2Cl)cc1)C(N)=O [Example 159], the IC50 [1] is reported as at least 1000 nM, the IC50 [2] is reported as at least 750 nM and the melting point is reported as 228 to 230 °C.

CC(C)(C)OC(=O)N1[C@@H](C(=O)N[C@@H](Cc2ccc(NC(=O)c3c(Cl)cccc3Cl)cc2)C(=O)O)CSC1(C)C (relative stereo) [Example 76, [S-(R*,R*)]-4-[[[1-Carboxy-2-[4-[(2,6-dichlorobenzoyl)amino]phenyl]ethyl]amino]carbonyl]-2,2-dimethyl-3-thiazolidinecarboxylic Acid 3-(1,1-Dimethylethyl)ester] showed an IC50 [1] of at most 250 nM and an IC50 [2] of 50 to 750 nM.

CCOC(=O)N1CSC[C@H]1C(=O)N[C@@H](Cc1ccc(NC(=O)c2c(Cl)cccc2Cl)cc1)C(=O)OC (relative stereo) [Example 15, [R-(R*,S*)]-4-[[[1-[[4-[(2,6-Dichlorobenzoyl)amino]phenyl]methyl]-2-methoxy-2-oxoethyl]amino]carbonyl]-3-thiazolidinecarboxylic Acid 3-Ethyl Ester] gave an IC50 [1] of at least 1000 nM and an IC50 [2] of at least 750 nM.

Work on O=C(O)c1ccc(C(=O)N2CCCC[C@H]2C(=O)N[C@@H](Cc2ccc(NC(=O)c3c(Cl)cccc3Cl)cc2)C(=O)O)nc1 [Example 187] yielded an IC50 [1] of at least 1000 nM and an IC50 [2] of 50 to 750 nM.

In the case of O=C(O)/C=C\C(=O)N1CCC[C@H]1C(=O)N[C@@H](Cc1ccc(NC(=O)c2c(Cl)cccc2Cl)cc1)C(=O)O [Example 227], the IC50 [1] is reported as at least 1000 nM and the IC50 [2] is reported as 50 to 750 nM.

In the case of C[C@H](c1ccccc1)N1[C@H](C(=O)O)C[C@H]1C(=O)N[C@@H](Cc1ccc(NC(=O)c2c(Cl)cccc2Cl)cc1)C(=O)O [Example 137, [2S-[1(S*),2α,4β(R*)]]-4-[[[1-Carboxy-2-[4-[(2,6-dichlorobenzoyl)amino]phenyl]ethyl]-amino]carbonyl]-1-(1-phenylethyl)-2-azetidinecarboxylic Acid], the IC50 [1] is reported as 250 to 1000 nM and the IC50 [2] is reported as 50 to 750 nM.

Molecule CC(C)(C)OC(=O)N1CSC[C@@H]1C(=O)N[C@@H](Cc1ccc(OCc2c(Cl)cccc2Cl)cc1)C(=O)O (relative stereo) [Example 33, [S-(R*,R*)]-4-[[[1-Carboxy-2-[4-[(2,6-dichlorophenyl)methoxy]phenyl]ethyl]amino]carbonyl]-3-thiazolidinecarboxylic Acid 3-(1,1-Dimethylethyl)ester] has an IC50 [1] of at most 250 nM and an IC50 [2] of 50 to 750 nM.
